One may read the EC50 as the concentration needed to bring the measured effect to its halfway point.

Experimental findings from publication PMC6627558, “Structures and Bioactivities of Six New Triterpene Glycosides, Psolusosides E, F, G, H, H1, and I and the Corrected Structure of Psolusoside B from the Sea Cucumber Psolus fabricii” (Marine Drugs, 2019) are described below.

Structures can show the parent of a compound that is named as a salt.

Series [1] concerns ascite form of mouse Ehrlich carcinoma cells. The experiment in a line: Cytotoxic activity against ascite form of mouse Ehrlich carcinoma cells (nonspecific esterase / MTT assay). In kind it is cell-based. Here is the method: (§1) The museum tetraploid strain of murine ascite Ehrlich carcinoma cells from the All-Russian Oncology Center (Moscow, Russia) was used. The cells were separated from the ascites, which were collected on day 7 after inoculation in mouse CD-1 line. The cells were washed of the ascites triply and resuspended in RPMI-1640 medium containing 8 μg/mL gentamicin (BioloT, St-Petersburg, Russia). Neuroblastoma Neuro 2A cells were cultured in DMEM medium containing 10% fetal bovine serum (FBS), (BioloT, St-Petersburg, Russia) and normal epithelial JB-6 cells were cultured in DMEM medium containing 5% fetal bovine serum (FBS), (BioloT, St-Petersburg, Russia) and 1% penicillin/streptomycine (Invitrogen). The HT-29 (ATCC # HTB-38) human colon cancer cell line was grown in monolayer in McCoy’s 5A medium supplemented with 10% (v/v) heat-inactivated FBS, 2 mM L-glutamine, and 1% penicillin-streptomycin in a humidified atmosphere containing 5% CO2. Cells were maintained in a sterile environment and kept in an incubator at 5% CO2 and 37 °C to promote growth. HT-29 cells were sub-cultured every 3–4 days by rinsing with phosphate buffered saline (PBS), adding trypsin to detach the cells from the tissue culture flask, and transferring 10%–20% of the harvested cells to a new flask containing fresh growth media.
(§2) Cytotoxic activity against ascite form of mouse Ehrlich carcinoma cells was investigated by nonspecific esterase activity assay. In total, 10µL of the test substance solution and 100 μL of the cell suspension were placed into each well of a 96-well microplate. The plate was incubated in a CO2 incubator at 37 °C for 1 or 24 h. A stock solution of the probe fluorescein diacetate (FDA; Sigma, St. Louis, MO, USA) in DMSO (1 mg/mL) was prepared. After incubation of the cells with test compounds, 10 μL of FDA solution (50 μg/mL) was added to each well and the plate was incubated at 37 °C for 15 min. Cells were washed with PBS, and fluorescence was measured with a Fluoroskan Ascent plate reader (Thermo Labsystems, Helsinky, Finland) at λex = 485 nm and λem = 518 nm. All experiments were repeated in triplicate. Cytotoxic activity was expressed as the percent of cell viability. Nonspecific esterase activity assay has been used for determination of cytotoxicity against neuroblastoma Neuro 2A and normal epithelial JB-6 cells.
(§3) The solutions of tested substances in different concentrations (20 µL) and cell suspension (200 µL) were added in wells of 96-well plate and incubated over night at 37 °C and 5% CO2. After incubation, the cells were sedimented by centrifugation, 200 µL of medium from each well were collected, and 100 µL of pure medium were added. Then, 10 µL of MTT solution […] (Sigma, St. Louis, MO, USA) were added in each well. The plate was incubated for 4 h, after which 100 µL SDS-HCl were added to each well, and the plate was incubated at 37 °C for 4–18 h. Optical density was measured at 570 nm and 630–690 nm. Cytotoxic activity of the substances was calculated as the concentration that caused 50% metabolic cell activity inhibition (IC50). The MTT assay has been used for determination of cytotoxic activity against Ehrlich carcinoma cells.

Another series deals with mouse erythrocytes. Description: Hemolytic activity against mouse erythrocytes. The class given is cell-based. As for the experimental part:
(§4) Blood was taken from CD-1 mice (18–20 g). The mice were anesthetized with diethyl ether, their chests were rapidly opened, and blood was collected in cold (4 °C) 10 mM phosphate-buffered saline, pH 7.4 (PBS) without anticoagulant. Erythrocytes were washed 3 times in PBS using at least 10 vol. of washing solution by centrifugation (2000 rpm) for 5 min. Erythrocytes were used at a concentration that provided an optical density of 1.0 at 700 nm for a non-hemolyzed sample. Then, 20 μL of a water solution of test substance with a fixed concentration was added to a well of a 96-well plate containing 180 μL of the erythrocyte suspension. Erythrocyte suspension was incubated with substances for 24 h at 37 °C. After that, the optical density of the obtained solutions was measured and ED50 for hemolytic activity of each compound was calculated.

Series [2] relates to mouse neuroblastoma Neuro 2A cells. The experiment in a line: Cytotoxicity against neuroblastoma Neuro 2A cells (nonspecific esterase activity assay). The following applies: mouse neuroblastoma Neuro 2A cells. In kind it is cell-based. Here is the method: as §1, §2
Series [3] deals with human colorectal adenocarcinoma HT-29 cells. Description: MTS assay, cell viability of HT-29 cells. In kind it is cell-based. The following applies: 0–20 μM, 24 h. Here is the method:
as §1
The HT-29 cells (1.0 × 10^4/well) were seeded in 96-well plates for 24 h at 37 °C in 5% CO2 incubator. The cells were treated with the tested substances at concentrations range from 0 to 20 μM for an additional 24 h. Subsequently, cells were incubated with 15 μL MTS reagent for 3 h and the absorbance in each well was measured at 490/630 nm using microplate reader “Power Wave XS” (Bio Tek, Winooski, VT, USA). All the experiments were repeated three times, and the mean absorbance values were calculated. The results are expressed as the percentage of inhibition that produced a reduction in absorbance by compound’s treatment compared to the non-treated cells (control).
(In general: Tetrazolium dyes change colour on reduction, which living cells bring about.)

Series [4] deals with normal epithelial JB-6 cells. Description: Cytotoxicity against normal epithelial JB-6 cells (nonspecific esterase activity assay). The class given is cell-based, mouse. The following applies: normal epithelial JB-6 cells. As for the experimental part: as §1, §2
For series [5], the system named is human colorectal adenocarcinoma HT-29 cells. Description: Soft agar assay, colony formation and growth of HT-29 cells. Particulars: 0–10 μM, 14 days, read-out: Soft Agar Assay ICCF50 (inhibition of colony formation). In kind it is cell-based. Here is the method:
as §1
The HT-29 cells (8.0 × 10^3) were seeded in 6-well plate and treated with the tested compounds at concentrations range 0–10 μM in 1 mL of 0.3% Basal Medium Eagle (BME) agar containing 10% FBS, 2mM L-glutamine, and 25 μg/mL gentamicin. The cultures were maintained at 37 °C in a 5% CO2 incubator for 14 days, and the cell’s colonies were scored using a microscope “Motic AE 20” (Scientific Instrument Company, Campbell, CA, USA) and the Motic Image Plus version 2.0 (Scientific Instrument Company, Campbell, CA, USA) computer program.

The nature of series [6]: Cytotoxic activity against ascite form of mouse Ehrlich carcinoma cells (nonspecific esterase / MTT assay). In kind it is cell-based. Particulars: ascite form of mouse Ehrlich carcinoma cells; read-out: Cytotoxicity EC50, Ehrlich carcinoma. As for the experimental part:
as §1, §2, §3

Series [7] can be described thus: Hemolytic activity against mouse erythrocytes. The following applies: CD-1, mouse erythrocyte suspension, pH 7.4, 24 h at 37 °C, read-out: Cytotoxicity EC50, Erhythrocytes (hemolytic activity). In kind it is cell-based. Here is the method:
as §4

A short description of series [8]: Cytotoxicity against neuroblastoma Neuro 2A cells (nonspecific esterase activity assay). In kind it is cell-based, mouse. The following applies: mouse neuroblastoma Neuro 2A cells. Here is the method: as §1, §2
Series [9] can be described thus: Cytotoxicity against normal epithelial JB-6 cells (nonspecific esterase activity assay). In kind it is cell-based, mouse. The following applies: mouse, normal epithelial JB-6 cells. As for the experimental part: as §1, §2

Take `C=C(C)CCC[C@]1(C)OC(=O)[C@]23CC=C4[C@@H](CC[C@H]5C(C)(C)[C@@H](O[C@@H]6OC[C@@H](O)[C@H](O)[C@H]6O[C@@H]6O[C@H](C)[C@@H](O[C@@H]7O[C@H](COS(=O)(=O)[O-])[C@@H](O)[C@H](O[C@@H]8O[C@H](COS(=O)(=O)[O-])[C@@H](O)[C@H](OC)[C@H]8O)[C@H]7O)[C@H](O)[C@H]6O)CC[C@]45C)[C@]2(C)CC(=O)[C@@H]31.[Na+].[Na+]` [Psolusoside A, 3β-O-[6-O-sodium sulfate-3-O-methyl-β-D-glucopyranosyl-(1→3)-6-O-sodium-sulfate-β-D-glucopyranosyl-(1→4)-β-D-quinovopyranosyl-(1→2)-β-D-xylopyranosyl]-16-ketoholosta-9(11),25-diene, reference compound]: the “cytotoxic action against mouse Ehrlich carcinoma cells (in words)” value in series [1] (ascite form) was “moderate cytotoxic action”. Moreover, the EC50 in series [1] (ascite form of mouse Ehrlich carcinoma cells, read-out: Cytotoxicity EC50, Ehrlich carcinoma) came to 30.9 µM; in the series with mouse erythrocytes (24 h at 37 °C, read-out: Cytotoxicity EC50, Erhythrocytes (hemolytic activity)), 1.4 µM; in [2] it was 2.9 µM; in series [4] it was 7.5 µM. The values for the IC50 in series [3] and in series [5] were more than 20 µM and more than 10 µM, respectively.
On to `C=C(C)CCC[C@]1(C)OC(=O)[C@]23CC[C@@H]4C(=CC[C@H]5C(C)(C)[C@@H](O[C@@H]6OC[C@@H](O[C@@H]7O[C@H](COS(=O)(=O)O)[C@@H](O)[C@H](O)[C@H]7O)[C@H](O)[C@H]6O[C@@H]6OC[C@@H](O[C@@H]7O[C@H](COS(=O)(=O)O)[C@@H](O)[C@H](O)[C@H]7O)[C@H](O)[C@H]6O)CC[C@]45C)[C@]2(C)C[C@H](OC(C)=O)[C@@H]31` [Psolusoside I (7), 3β-O-{6-O-sodium sulfate-β-D-glucopyranosyl-(1→4)-β-D-xylopyranosyl-(1→2)-[6-O-sodium sulfate-β-D-glucopyranosyl-(1→4)]-β-D-xylopyranosyl}-16β-acetoxyholosta-7,25-diene], for which the EC50 was determined as 87.4 µM in [6], 26.8 µM in series [8] and 37.2 µM in series [9]. Moreover, the “hemolytic activity (in words)” value in the series with mouse erythrocytes is listed as “moderate hemolytic activity”. The EC50 at 24 h in series [7] came out at 18.3 µM. Besides, the IC50 was more than 20 µM in series [3] (Homo sapiens) and 10 ± 0.4 µM in [5] (Homo sapiens, 336 h).
